Key:
[1] = tested on: ovalbumin-sensitized/-challenged Brown-Norway rat; assay: Late inflammatory airway reaction in the ovalbumin-sensitized/-challenged Brown-Norway rat (BAL); details: summary of the table; i.t.; Roflumilast 0.3 μmol/kg, Pumafentrine 3 μmol/kg, Salmeterol 3 pmol/kg [sic]
PDE4 = PDE4 inhibition (PDE3/4 IC50); format: biochemical; details: second value of PDE3/4 pair
PDE3 = PDE3 inhibition (PDE3/4 IC50); format: biochemical; details: first value of PDE3/4 pair

| IC50 (PDE4) | IC50 (PDE3) | Structure (SMILES) | effect on cell infiltration and protein accumulation in BAL fluid, in words [1] |
| --- | --- | --- | --- |
|  |  | OCc1cc(C(O)CNCCCCCCOCCCCc2ccccc2)ccc1O (single isomer, unassigned; (+)) [Salmeterol, (+)-4-hydroxy-α^1-[[[6-(4-phenylbutoxy)hexyl]amino]methyl]-1,3-benzenedimethanol] | exhibited inhibitory effects |
| 7 nM | 28 nM | CCOc1cc2c(cc1OC)C(c1ccc(C(=O)N(C(C)C)C(C)C)cc1)=N[C@@H]1CCN(C)C[C@H]21 [Pumafentrine] | did not show any significant effects |
| 0.7 nM | > 10000 nM | O=C(Nc1c(Cl)cncc1Cl)c1ccc(OC(F)F)c(OCC2CC2)c1 [Roflumilast] | did not show any significant effects |
